In US7491819B1 (priority 2004, dated 2009):

How the values were obtained:
HIV-1 303B = experiment: microbe, parasite or virus in culture; assay type: cell-based; settings: for EC50: Human immunodeficiency virus 1, MT2, 120 h; for overall antiviral effect of the two-drug combination with Example 19 (in words): classification from combination indices and confidence intervals; for Combination Indices at 50% HIV Inhibition (Confidence Interval) / Combination Indices at 75% HIV Inhibition (Confidence Interval) / Combination Indices at 90% HIV Inhibition (Confidence Interval): in combination with Example 19, 95% CI in parenthesis
Protocol: Virus and cell lines. The T-cell line, MT-2, was obtained through the AIDS Research and Reference Reagent Program. MT-2 cells were sub-cultured twice a week in RPMI 1640 medium supplemented with 10% fetal bovine serum, 2 mM L-glutamine, and 10 mM HEPES buffer pH 7.5. The HIV-1303B virus is a molecular clone derived from the NL4-3 strain of HIV-1 that was obtained from the NIH AIDS Research and Reference Reagent Program. For combinations with enfuvirtide, the NL36G virus was used. […] Virus stocks were made by transfecting 293T cells with a proviral DNA clone using LipofectAMINE PLUS (Invitrogen), according to the manufacturer's instructions. Three days post-transfection, virus was harvested and passaged once in MT-2 cells before titration in MT-2 cells.
Chemicals. Example 19, atazanavir, didanosine, stavudine, efavirenz, and enfuvirtide (T-20) were synthesized by Bristol-Myers Squibb using published or known reactions. […] Tenofovir was tested as tenofovir disopoxil fumarate. Zidovudine and zalcitabine were purchased from Sigma, and emtricitabine from Moravek Biochemicals.
Drug Susceptibility and Cytotoxicity Assays. For drug susceptibility assays, MT-2 cells were infected with HIV-1 303B (or NL36G), at an MOI of 0.001, and seeded into 96-well microtiter plates (2.5×10^5 cells/ml) containing serial dilutions of test compounds. […] Each drug ratio consisted of an array of 3-fold serial dilutions, and was performed with eight or more replicas on separate multi-well plates. HIV infected cells were incubated at 37° C. in 5% CO2, and on day five post-infection, the extent of virus replication was measured by determining cell viability using the CellTiter 96 Aqueous Non-Radioactive Cell Proliferation Assay (Promega). […] Cytotoxicity assays were performed in parallel with the combination experiments. Here, uninfected cells were exposed to the same drug combinations, and assayed after five days for cell viability using the MTS assay.
Analysis of Drug Combination Effects. For determination of combination index (CI) values, drugs were diluted in a fixed ratio and multiple ratios were analyzed. The drug serial dilutions spanned a range of concentrations near the EC50 value of each compound, so that equivalent antiviral activities could be compared. The normalized responses from each therapy are fit to the four-parameter logistic model with a common minimum and maximum across all therapies. Conceptually, this equation can be written as
In this equation, Fa stands for “fraction affected,” and represents the fraction of the viral load that has been inactivated. […] The EC50, represented by the Ci in the above equation, is the drug concentration that is expected to reduce the amount of virus by 50%, and the Bi are the parameters that reflects the slope of the concentration-response curve. For this assay, A is the bottom plateau common to all curves, D is the common top plateau, Bj is the “slope” parameter for the jth therapy, and Cj is the concentration that produces an effect equal to the average of A and D for the jth therapy. Therapies 1 and 2 correspond to mono therapies 1 and 2, respectively. Therapies 3, 4, and 5 correspond to the three combination therapies. EC50 values for each drug were determined from the single drug experiments, using the above equation. The equation was fit using a nonlinear regression routine (Proc Nlin) in PC SAS version 8.2 (SAS Institute Inc.).
To assess antiviral effects of different drug combination treatments, combination indices (CIs) were calculated according to Chou and Rideout. The combination index was computed as
In this equation [Dm]1 and [Dm]2 are the concentrations of drugs that would individually produce a specific level of effect, while [D]1 and [D]2 are the concentrations of drugs in combination that would produce the same level of effect.
Theoretically, additivity is implied if the CI is equal to one, synergy if the CI is less than one, and antagonism if the CI is greater than one.

HIV-integrase = target: T1, HIV-integrase (Human immunodeficiency virus type 1 group M subtype B, UniProt P12497); experiment: HIV-Integrase Inhibition Activity (SPA bead strand-transfer assay); assay type: biochemical; settings: Table 1; read-out: Activity (HIV-integrase inhibition, IC50 class)
T1 construct: Recombinant integrase (0.26 ng) was incubated with the beads
Method in brief: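 Strand-transfer read-out: CPM from P33-labelled target DNA (0.1 fmol) joined to bead-bound biotin substrate DNA (5 pmole), with EDTA stop at 10 mM final. Integrase (0.26 ng) prebound to streptavidin SPA beads 90 min, 37° C, and washed before adding inhibitor.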

[1] = EC50 ratio Example 19:comparator 1:1
[2] = EC50 ratio Example 19:comparator 1:2.5
[3] = EC50 ratio Example 19:comparator 2.5:1

## CC(C)c1nc(CN(C)C(=O)N[C@H](C(=O)N[C@@H](Cc2ccccc2)C[C@H](O)[C@H](Cc2ccccc2)NC(=O)OCc2cncs2)C(C)C)cs1 [Ritonavir, ritonavir]
HIV-1 303B
  EC50: 48 nM
  overall antiviral effect of the two-drug combination with Example 19 (in words): additive relationship with Example 19 cannot be ruled out
HIV-1 303B; [1]
  Combination Indices at 50% HIV Inhibition (Confidence Interval): 0.80 (0.67, 0.93)
  Combination Indices at 75% HIV Inhibition (Confidence Interval): 0.57 (0.41, 0.73)
  Combination Indices at 90% HIV Inhibition (Confidence Interval): 0.44 (0.23, 0.65)
HIV-1 303B; [2]
  Combination Indices at 50% HIV Inhibition (Confidence Interval): 0.73 (0.59, 0.88)
  Combination Indices at 75% HIV Inhibition (Confidence Interval): 0.64 (0.48, 0.80)
  Combination Indices at 90% HIV Inhibition (Confidence Interval): 0.61 (0.38, 0.85)
HIV-1 303B; [3]
  Combination Indices at 50% HIV Inhibition (Confidence Interval): 0.92 (0.72, 1.11)
  Combination Indices at 75% HIV Inhibition (Confidence Interval): 0.72 (0.50, 0.93)
  Combination Indices at 90% HIV Inhibition (Confidence Interval): 0.59 (0.32, 0.87)

## COC(=O)N[C@H](C(=O)N[C@@H](Cc1ccccc1)[C@@H](O)CN(Cc1ccc(-c2ccccn2)cc1)NC(=O)[C@@H](NC(=O)OC)C(C)(C)C)C(C)(C)C [Atazanavir, atazanavir]
HIV-1 303B
  EC50: 10 nM
  overall antiviral effect of the two-drug combination with Example 19 (in words): confidence interval is below one at all concentrations and effective levels
HIV-1 303B; [1]
  Combination Indices at 50% HIV Inhibition (Confidence Interval): 0.87 (0.79, 0.96)
  Combination Indices at 75% HIV Inhibition (Confidence Interval): 0.67 (0.55, 0.80)
  Combination Indices at 90% HIV Inhibition (Confidence Interval): 0.52 (0.37, 0.67)
HIV-1 303B; [2]
  Combination Indices at 50% HIV Inhibition (Confidence Interval): 0.65 (0.51, 0.78)
  Combination Indices at 75% HIV Inhibition (Confidence Interval): 0.45 (0.31, 0.58)
  Combination Indices at 90% HIV Inhibition (Confidence Interval): 0.31 (0.19, 0.44)
HIV-1 303B; [3]
  Combination Indices at 50% HIV Inhibition (Confidence Interval): 0.78 (0.69, 0.86)
  Combination Indices at 75% HIV Inhibition (Confidence Interval): 0.60 (0.54, 0.67)
  Combination Indices at 90% HIV Inhibition (Confidence Interval): 0.47 (0.40, 0.54)

## CC1(C)OCCn2c1nc(C(=O)NCc1ccc(F)cc1O)c(O)c2=O [Example 95, Pyrimido[2,1-c][1,4]oxazine-2-carboxamide, N-[(4-fluoro-2-hydroxyphenyl)methyl]-4,6,7,9-tetrahydro-3-hydroxy-9,9-dimethyl-4-oxo-]
HIV-integrase
  IC50: 2 to 100 nM

## CC1(C)OCCn2c1nc(C(=O)NCc1ccc(F)c(C(F)(F)F)c1)c(O)c2=O [Example 241, Pyrimido[2,1-c][1,4]oxazine-2-carboxamide, N-[[4-fluoro-3-(trifluoromethyl)phenyl]methyl]-4,6,7,9-tetrahydro-3-hydroxy-9,9-dimethyl-4-oxo-]
HIV-integrase
  IC50: 2 to 100 nM

## CC1(C)OCCn2c1nc(C(=O)NCc1ccc(-n3cncn3)cc1F)c(O)c2=O [Example 22, Pyrimido[2,1-c][1,4]oxazine-2-carboxamide, N-[[2-fluoro-4-(1H-1,2,4-triazol-1-yl)phenyl]methyl]-4,6,7,9-tetrahydro-3-hydroxy-9,9-dimethyl-4-oxo-]
HIV-integrase
  IC50: 100 to 1000 nM

## CC1(C)OCCn2c1nc(C(=O)NCc1ccc(F)cc1N1C(=O)CC[C@H]1CO)c(O)c2=O [Example 130, Pyrimido[2,1-c][1,4]oxazine-2-carboxamide, N-[[4-fluoro-2-[(2S)-2-(hydroxymethyl)-5-oxo-1-pyrrolidinyl]phenyl]methyl]-4,6,7,9-tetrahydro-3-hydroxy-9,9-dimethyl-4-oxo-]
HIV-integrase
  IC50: 2 to 100 nM

## CC1(C)OCCCn2c1nc(C(=O)NCc1ccc(F)cc1S(C)(=O)=O)c(O)c2=O [Example 202, 6H-Pyrimido[2,1-c][1,4]oxazepine-2-carboxamide, N-[[4-fluoro-2-(methylsulfonyl)phenyl]methyl]-4,7,8,10-tetrahydro-3-hydroxy-10,10-dimethyl-4-oxo-]
HIV-integrase
  IC50: 2 to 100 nM

## CC1(C)OCCn2c1nc(C(=O)NCc1cccc(Cl)c1Cl)c(O)c2=O [Example 227, Pyrimido[2,1-c][1,4]oxazine-2-carboxamide, N-[(2,3-dichlorophenyl)methyl]-4,6,7,9-tetrahydro-3-hydroxy-9,9-dimethyl-4-oxo-]
HIV-integrase
  IC50: 2 to 100 nM

## CC1(C)OCCn2c1nc(C(=O)NCc1cc(F)ccc1F)c(O)c2=O [Example 224, Pyrimido[2,1-c][1,4]oxazine-2-carboxamide, N-[(2,5-difluorophenyl)methyl]-4,6,7,9-tetrahydro-3-hydroxy-9,9-dimethyl-4-oxo-]
HIV-integrase
  IC50: 2 to 100 nM

## CC1(C)OCCn2c1nc(C(=O)NCc1ccccc1-c1ccc3[nH]ccc3c1)c(O)c2=O [Example 177, Pyrimido[2,1-c][1,4]oxazine-2-carboxamide, 4,6,7,9-tetrahydro-3-hydroxy-N-[[2-(1H-indol-5-yl)phenyl]methyl]-9,9-dimethyl-4-oxo-]
HIV-integrase
  IC50: 2 to 100 nM

## Cc1cc(C)cc(CNC(=O)c2nc3n(c(=O)c2O)CCOC3(C)C)c1 [Example 38, Pyrimido[2,1-c][1,4]oxazine-2-carboxamide, N-[(3,5-dimethylphenyl)methyl]-4,6,7,9-tetrahydro-3-hydroxy-9,9-dimethyl-4-oxo-]
HIV-integrase
  IC50: 2 to 100 nM

## CC(C)Oc1ccccc1CNC(=O)c1nc2n(c(=O)c1O)CCOC2(C)C [Example 262, Pyrimido[2,1-c][1,4]oxazine-2-carboxamide, 4,6,7,9-tetrahydro-3-hydroxy-9,9-dimethyl-N-[[2-(1-methylethoxy)phenyl]methyl]-4-oxo-]
HIV-integrase
  IC50: 2 to 100 nM

## CC1(C)OCCn2c1nc(C(=O)NCc1cccc3c1OCCCO3)c(O)c2=O [Example 268, Pyrimido[2,1-c][1,4]oxazine-2-carboxamide, N-[(3,4-dihydro-2H-1,5-benzodioxepin-6-yl)methyl]-4,6,7,9-tetrahydro-3-hydroxy-9,9-dimethyl-4-oxo-]
HIV-integrase
  IC50: 2 to 100 nM

## CC1(C)OCCn2c1nc(C(=O)NCc1ccc(F)cc1N1C(=O)CC[C@@H]1CN)c(O)c2=O [Example 133, (R)—N-(2-(2-(Aminomethyl)-5-oxopyrrolidin-1-yl)-4-fluorobenzyl)-3-hydroxy-9,9-dimethyl-4-oxo-4,6,7,9-tetrahydropyrimido[2,1-c][1,4]oxazine-2-carboxamide]
HIV-integrase
  IC50: 100 to 1000 nM

## CC1(C)OCCn2c1nc(C(=O)NCc1ccc(F)cc1N1CCCCS1(=O)=O)c(O)c2=O [Example 27, Pyrimido[2,1-c][1,4]oxazine-2-carboxamide, N-[[4-fluoro-2-(tetrahydro-1,1-dioxido-2H-1,2-thiazin-2-yl)phenyl]methyl]-4,6,7,9-tetrahydro-3-hydroxy-9,9-dimethyl-4-oxo-]
HIV-integrase
  IC50: 2 to 100 nM

## COc1cc(CNC(=O)c2nc3n(c(=O)c2O)CCOC3(C)C)ccc1F [Example 245, Pyrimido[2,1-c][1,4]oxazine-2-carboxamide, N-[(4-fluoro-3-methoxyphenyl)methyl]-4,6,7,9-tetrahydro-3-hydroxy-9,9-dimethyl-4-oxo-]
HIV-integrase
  IC50: 2 to 100 nM

## CC1(C)OCCn2c1nc(C(=O)NCc1ccc(F)cc1-c1ccc[nH]c1=O)c(O)c2=O [Example 78, Pyrimido[2,1-c][1,4]oxazine-2-carboxamide, N-[[2-(1,2-dihydro-2-oxo-3-pyridinyl)-4-fluorophenyl]methyl]-4,6,7,9-tetrahydro-3-hydroxy-9,9-dimethyl-4-oxo-]
HIV-integrase
  IC50: 2 to 100 nM
